Measured values reported in PMC12203311, “Design, synthesis, in silico and in vitro evaluation of pyrrole–indole hybrids as dual tubulin and aromatase inhibitors with potent anticancer activities” (RSC Advances, 2025).

What was measured:
CCRF-CEM = experiment: NCI60 five-dose screen; format: cell-based; settings: Homo sapiens, leukemia
K-562 = experiment: NCI60 five-dose screen; format: cell-based; settings: Homo sapiens, K562, K-562, leukemia
MOLT-4 = experiment: NCI60 five-dose screen; format: cell-based; settings: Homo sapiens, MOLT-4, leukemia
EKVX = experiment: NCI60 five-dose screen; format: cell-based; settings: Homo sapiens, NSC lung cancer
HOP-92 = experiment: NCI60 five-dose screen; format: cell-based; settings: Homo sapiens, HOP-92, NSC lung cancer
NCI-H322M = experiment: NCI60 five-dose screen; format: cell-based; settings: Homo sapiens, NSC lung cancer
NCI-H460 = experiment: NCI60 five-dose screen; format: cell-based; settings: Homo sapiens, NCI-H460, NSC lung cancer
NCI-H522 = experiment: NCI60 five-dose screen; format: cell-based; settings: Homo sapiens, NCI-H522, NSC lung cancer
HCT-116 = experiment: NCI60 five-dose screen; format: cell-based; settings: Homo sapiens, HCT-116, colon cancer
HCT-15 = experiment: NCI60 five-dose screen; format: cell-based; settings: Homo sapiens, HCT-15, colon cancer
HT29 = experiment: NCI60 five-dose screen; format: cell-based; settings: Homo sapiens, HT-29, HT29, colon cancer
KM12 = experiment: NCI60 five-dose screen; format: cell-based; settings: Homo sapiens, KM12, colon cancer
SW-620 = experiment: NCI60 five-dose screen; format: cell-based; settings: Homo sapiens, SW-620, colon cancer
SF-295 = experiment: NCI60 five-dose screen; format: cell-based; settings: Homo sapiens, SF-295, CNS cancer
SF-539 = experiment: NCI60 five-dose screen; format: cell-based; settings: Homo sapiens, SF-539, CNS cancer
U251 = experiment: NCI60 five-dose screen; format: cell-based; settings: Homo sapiens, U-251, U251, CNS cancer
SK-MEL-2 = experiment: NCI60 five-dose screen; format: cell-based; settings: Homo sapiens, SK-MEL-2, melanoma
SK-MEL-28 = experiment: NCI60 five-dose screen; format: cell-based; settings: Homo sapiens, SK-MEL-28, melanoma
UACC-257 = experiment: NCI60 five-dose screen; format: cell-based; settings: Homo sapiens, UACC-257, melanoma
IGROV1 = experiment: NCI60 five-dose screen; format: cell-based; settings: Homo sapiens, IGROV-1; IGROV1, ovarian cancer
OVCAR-4 = experiment: NCI60 five-dose screen; format: cell-based; settings: Homo sapiens, OVCAR-4, ovarian cancer
OVCAR-8 = experiment: NCI60 five-dose screen; format: cell-based; settings: Homo sapiens, OVCAR-8, ovarian cancer
NCI/ADR-RES = experiment: NCI60 five-dose screen; format: cell-based, human; settings: Homo sapiens, ovarian cancer
RXF 393 = experiment: NCI60 five-dose screen; format: cell-based; settings: Homo sapiens, RXF 393, renal cancer
SN12C = experiment: NCI60 five-dose screen; format: cell-based; settings: Homo sapiens, renal cancer
UO-31 = experiment: NCI60 five-dose screen; format: cell-based; settings: Homo sapiens, UO-31, renal cancer
PC-3 = experiment: NCI60 five-dose screen; format: cell-based; settings: Homo sapiens, PC-3, prostate cancer
MCF7 = experiment: NCI60 five-dose screen; format: cell-based; settings: Homo sapiens, MCF7, breast cancer
T-47D = experiment: NCI60 five-dose screen; format: cell-based; settings: Homo sapiens, T47D, breast cancer
[1] = test system: T47D breast cancer cell line; experiment: Cytotoxicity MTT assay, T47D; format: cell-based, human; settings: Homo sapiens, T47D; MTT, 48 hours
In short: (§1)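 Both lines were handled identically: 10 000 cells per well, overnight growth, 48 h with compound at the chosen concentrations, then 0.5 mg mL^−1 MTT for 3 h. Dissolved formazan was quantified at 570 nm against vehicle-treated wells.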

[2] = Cytotoxicity MTT assay, L929; format: cell-based, mouse; settings: mouse, L929 fibroblast cells; MTT, 48 hours
In short: as §1

[3] = test system: L929 normal mouse fibroblast cell line; experiment: Cytotoxicity MTT assay, L929; format: cell-based; settings: IC50 (L929)/IC50 (T47D)
In short: as §1

[4] = read-out: LC50 (the source's name)

Q: What does the source list for `CCc1cc[nH]c1/C=N/NC(=O)c1[nH]c2ccc(Br)cc2c1-c1ccccc1` [Derivative 3u, (E)-5-Bromo-N′-((3-ethyl-1H-pyrrol-2-yl)methylene)-3-phenyl-1H-indole-2-carbohydrazide]?
A: GI50 (CCRF-CEM): 2.35 µM; CC50 (CCRF-CEM; [4]): 63.8 µM; GI50 (K-562): 2.27 µM; CC50 (K-562; [4]): 56.2 µM; GI50 (MOLT-4): 2.37 µM; CC50 (MOLT-4; [4]): 55.1 µM; GI50 (EKVX): 2.79 µM; CC50 (EKVX; [4]): 37.7 µM; GI50 (HOP-92): 3.8 µM; CC50 (HOP-92; [4]): 44.3 µM; GI50 (NCI-H322M): 3.93 µM; CC50 (NCI-H322M; [4]): 43.4 µM; GI50 (NCI-H460): 1.23 µM; CC50 (NCI-H460; [4]): 36.7 µM; GI50 (NCI-H522): 2.3 µM; CC50 (NCI-H522; [4]): 34.1 µM; GI50 (HCT-116): 2.5 µM; CC50 (HCT-116; [4]): 44 µM; GI50 (HCT-15): 1.03 µM; CC50 (HCT-15; [4]): 38.8 µM; GI50 (HT29): 2.17 µM; CC50 (HT29; [4]): 39.3 µM; GI50 (KM12): 3.17 µM; CC50 (KM12; [4]): 42.3 µM; GI50 (SW-620): 3.82 µM; CC50 (SW-620; [4]): 43.3 µM; GI50 (SF-295): 2.29 µM; CC50 (SF-295; [4]): 37.1 µM; GI50 (SF-539): 3.17 µM; CC50 (SF-539; [4]): 35.6 µM; GI50 (U251): 2.15 µM; CC50 (U251; [4]): 37.8 µM; GI50 (SK-MEL-2): 6.77 µM; CC50 (SK-MEL-2; [4]): 45.8 µM; GI50 (SK-MEL-28): 3.46 µM; CC50 (SK-MEL-28; [4]): 40.1 µM; GI50 (UACC-257): 3.78 µM; CC50 (UACC-257; [4]): 40.8 µM; GI50 (IGROV1): 3.52 µM; LC50 (concentration causing 50% net cell kill) (IGROV1): 44 µM; GI50 (OVCAR-4): 3.33 µM; CC50 (OVCAR-4; [4]): 43.7 µM; GI50 (OVCAR-8): 3.02 µM; CC50 (OVCAR-8; [4]): 39.8 µM; GI50 (NCI/ADR-RES): 2.68 µM; CC50 (NCI/ADR-RES; [4]): 34.6 µM; GI50 (RXF 393): 1.19 µM; CC50 (RXF 393; [4]): 18.7 µM; GI50 (SN12C): 2.26 µM; CC50 (SN12C; [4]): 34 µM; GI50 (UO-31): 2.94 µM; CC50 (UO-31; [4]): 39.7 µM; GI50 (PC-3): 3.09 µM; CC50 (PC-3; [4]): 47.6 µM; GI50 (MCF7): 2.63 µM; CC50 (MCF7; [4]): 37.5 µM; GI50 (T-47D): 2.17 µM; CC50 (T-47D; [4]): 41.9 µM; IC50 [1]: 6.2 ± 3.6 µM; IC50 at 48 h [2]: 12.2 ± 0.7 µM; Selectivity index (SI) [3]: 1.97
